Series [1] has as its target T1, CYP2A6 (Homo sapiens, UniProt P11509).
T1 sequence (P11509 1-494): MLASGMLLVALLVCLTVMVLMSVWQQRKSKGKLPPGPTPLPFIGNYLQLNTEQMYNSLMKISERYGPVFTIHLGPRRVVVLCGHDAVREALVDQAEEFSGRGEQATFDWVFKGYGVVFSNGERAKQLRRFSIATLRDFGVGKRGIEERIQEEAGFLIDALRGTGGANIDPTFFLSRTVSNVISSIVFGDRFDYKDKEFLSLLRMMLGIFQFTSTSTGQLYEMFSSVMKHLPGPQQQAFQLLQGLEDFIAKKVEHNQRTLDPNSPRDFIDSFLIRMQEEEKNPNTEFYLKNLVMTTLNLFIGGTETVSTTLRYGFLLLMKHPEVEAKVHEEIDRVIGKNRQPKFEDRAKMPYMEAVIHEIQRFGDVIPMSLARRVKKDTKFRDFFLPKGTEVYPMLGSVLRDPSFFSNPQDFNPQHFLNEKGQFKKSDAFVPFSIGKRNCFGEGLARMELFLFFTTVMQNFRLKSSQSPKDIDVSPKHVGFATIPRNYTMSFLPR
The experiment in a line: N-in-one CYP inhibition assay in human liver microsomes. As for the experimental part: (§1) Human liver microsomes were prepared and pooled from ten human livers (HL20–24,28–32) as previously described. Human liver samples were obtained from the University Hospital of Oulu as surplus tissue from cadaver kidney transplant donors. The collection of surplus tissue was approved by the Ethics Committee of the Medical Faculty of the University of Oulu, Finland. All donors were Caucasians ranging in age from 21 to 62 years; four were female and six were male. Detailed information on each donor has been published previously. Protein concentrations were measured using the Bradford method.
(§2) In vitro inhibition of CYP isoforms was first assessed using the N-in-one approach (also called the cocktail approach). CYP-selective substrates and reactions are listed in Table 1; concentrations were roughly at or below the respective Michaelis-Menten coefficients. […] A Micromass LCT time-of-flight high-resolution mass spectrometer (Micromass Ltd., Manchester, UK) equipped with a Z-spray electrospray ionization source was used for the monitoring of CYP-selective reactions. Integrated mass chromatogram peak areas were normalized versus internal standards before comparing metabolites in different preparations. More details of the assay are available in previous publications.
(In general: Liver microsomes are vesicles of endoplasmic reticulum, rich in cytochrome P450 enzymes.)

Series [2] deals with CYP2E1 (Homo sapiens, UniProt P05181). Described as above. As for the experimental part:
as §1, §2

The conditions of series [3]: cited from earlier work.
For series [4] the following is noted: ref data on file, cited from earlier work.
Setting [5] is: steady state, converted from ng/mL.

Where two headings read alike, the source gives them in different places.

CYP2E1, sequence (P05181 whole entry): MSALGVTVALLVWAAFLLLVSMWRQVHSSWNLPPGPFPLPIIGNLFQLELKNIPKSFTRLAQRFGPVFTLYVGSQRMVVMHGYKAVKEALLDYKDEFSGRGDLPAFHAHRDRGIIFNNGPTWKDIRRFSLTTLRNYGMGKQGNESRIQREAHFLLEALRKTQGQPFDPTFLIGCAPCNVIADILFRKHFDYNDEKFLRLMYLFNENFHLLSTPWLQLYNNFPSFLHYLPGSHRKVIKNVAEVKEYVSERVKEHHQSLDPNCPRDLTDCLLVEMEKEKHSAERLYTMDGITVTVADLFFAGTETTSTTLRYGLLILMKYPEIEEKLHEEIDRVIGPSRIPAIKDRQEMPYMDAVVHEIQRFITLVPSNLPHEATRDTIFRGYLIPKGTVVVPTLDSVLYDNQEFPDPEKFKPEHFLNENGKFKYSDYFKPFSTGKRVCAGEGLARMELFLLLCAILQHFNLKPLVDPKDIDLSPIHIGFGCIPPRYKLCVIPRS

A word on the IC50: it is the midpoint of a concentration-inhibition curve. The Cmax is the maximum level reached in the sampled fluid or tissue. Turning to `OCCOc1ccc(/C(=C(/CCCl)c2ccccc2)c2ccccc2)cc1` [Ospemifene], the IC50 in series [1] and in series [2] was over 100 µM each time. In addition, in series [3] (introduction, no reference given), the average plasma half-life entry is recorded as “about 20 h”. The “Cav at steady state” value in series [3] (setting [5]) was about 600 nM; in series [3] (steady state), 227 ng/mL. Also, the “Cmin at steady state” value is about 250 nM in series [3] (setting [5]) and 94 ng/mL in series [3] (steady state). Moreover, in series [3] (steady state, converted from ng/mL, read-out: mean Cmax at steady state), the Cmax is about 2000 nM. Besides, the “mean Cmax at steady state” value in series [3] (steady state) was 785 ng/mL. Also, the “Change of serum concentrations of ospemifene” value in series [4] (fluconazole pretreatment) was “increased”; in series [4] (ketoconazole pretreatment), “increased”; in series [4] (omeprazole pretreatment) it was “minimally changed”; in series [4] (rifampicin pretreatment) it was “reduced”.

Values taken from publication PMC3742231 (International Journal of Molecular Sciences, 2013).
